In patent publication US12453708B2, “Aminonaphthoquinone compounds for treatment and/or prevention of fibrosis diseases” (CALGENT BIOTECHNOLOGY CO., LTD., priority 2015, dated 2025):

Experiments:
Type in all cases: cell-based, human
WI-38 lung fibroblasts = assay: Cell viability test (MTT-assay) in WI-38 cells; settings: 0.3, 1, 3 or 10 μM for 2 hours
Protocol: WI-38 cells, a normal human embryonic lung fibroblast cell line, were obtained from American Type Culture Collection (Manassas, VA). Cells were grown in MEM nutrient mixture, containing 10% FCS, 2 mM L-glutamine, 0.1 mM NEAA, 1 mM sodium pyruvate, 50 U/ml penicillin G, and 100 µg/ml streptomycin, in a humidified 37° C. incubator with 5% CO2 Cells were used between passages 18 and 30 for all experiments. After reaching confluence, cells were seeded onto 6-cm dishes for immunoblotting. WI-38 lung fibroblasts were incubated with different concentrations of MPTOL056 (0.3, 1, 3 or 10 μM) for 2 hours before MTT-assay.

[1] = system: TGF-β-induced fibronectin expression in WI-38 cells; assay: TGF-β-induced fibronectin expression in WI-38 cells (Western blot, immunofluorescence); settings: WI-38 lung fibroblasts, 0.3, 1, 3 or 10 μM for 30 min before and during incubation with TGF-β (10 ng/mL)
Protocol: (§1) FIGS. 6 (A), (B) and (C) show the effect of L056 on TGF-β-induced fibronectin expression in WI-38 cells. WI-38 lung fibroblasts were incubated with different concentrations of L056 (0.3, 1, 3 or 10 μM) for 30 min before and during incubation for 2 h with TGF-β (10 ng/mL). […] (A), Western blot plot; (B), Quantitative assay of Western blot; (C), Immunofluorescence plot. WI-38 cells, a normal human embryonic lung fibroblast cell line, were obtained from American Type Culture Collection (Manassas, VA). Cells were grown in MEM nutrient mixture, containing 10% FCS, 2 mM L-glutamine, 0.1 mM NEAA, 1 mM sodium pyruvate, 50 U/ml penicillin G, and 100 µg/ml streptomycin, in a humidified 37° C. incubator with 5% CO2 Cells were used between passages 18 and 30 for all experiments. After reaching confluence, cells were seeded onto 6-cm dishes for immunoblotting. Western blot analyses were performed as described previously (Chen B C, Chang Y S, Kang J C, Hsu M J, Sheu J R, Chen T L, et al. Peptidoglycan induces nuclear factor-kappaB activation and cyclooxygenase-2 expression via Ras, Raf-1, and ERK in RAW 264.7 macrophages. J Biol Chem 2004; 279:20889-97). […] The immunoreactivity was detected using enhanced chemiluminescence (ECL) following the manufacturer's instructions. Quantitative data were obtained using a computing densitometer with scientific imaging systems (Kodak, Rochester, NY). […]

[2] = system: TGF-β-induced CTGF expression in WI-38 cells; assay: TGF-β-induced CTGF expression in WI-38 cells (Western blot); settings: WI-38 lung fibroblasts, 0.3, 1, 3 or 10 μM for 30 min before and during 2 h TGF-β (10 ng/mL)
Protocol: as §1, with “1 (A) and” for “6 (A),”, “(B)” for “(B) and (C)”, “CTGF” for “fibronectin”, “blot.” for “blot; (C), Immunofluorescence plot.”

O=C(Nc1ccncc1)c1ccc(CNC2=C(Cl)C(=O)c3ccccc3C2=O)cc1 [Example L056, 4-(((3-chloro-1,4-dioxo-1,4-dihydronaphthalen-2-yl)amino)methyl)-N-(pyridin-4-yl)benzamide]
cell viability (WI-38 lung fibroblasts): did not affect cell viability | TGF-β-induced fibronectin expression [1]: significantly inhibited | TGF-β-induced CTGF production [2]: significantly inhibited
